Reference: PMC9297976 (Journal of Applied Toxicology, 2021)

What was measured:
[1] = system: Japanese medaka (Oryzias latipes); test: Fish Short‐Term Reproduction Assay; assay type: in vivo; conditions: for Fertility rate / Hepatic VTG, female / Hepatic VTG, male / Mortality / Mortality, number of dead fish / Number of fertilized eggs (per female per day) / Number of total eggs (per female per day) / SSC female (joint plates with papillary processes) / SSC male (joint plates with papillary processes) / Change of hepatic VTG levels in females (in words) / Fecundity, number of total eggs (in words): 21 d; for minimal effective concentration: Oryzias latipes, 504 h, read-out: LOECmVTG; for Fertility rate (in words): chemicals with significant decrease of number of total eggs; for LOECTOX: lowest observed effect concentration on mortality; for GSI Female / GSI Male / HSI Female / HSI Male / Length Female / Length Male / Weight Female / Weight Male: completion of exposure
medaka ARβ (mArβ) [2] = target: T1, medaka ARβ (mArβ) (Oryzias latipes, UniProt D1MV73); test: Medaka ARβ reporter gene assay, antagonist assay; assay type: cell-based, Japanese medaka (Oryzias latipes); conditions: 11‐KT spiked at 50 nM (D)
T1 sequence (D1MV73 1-744): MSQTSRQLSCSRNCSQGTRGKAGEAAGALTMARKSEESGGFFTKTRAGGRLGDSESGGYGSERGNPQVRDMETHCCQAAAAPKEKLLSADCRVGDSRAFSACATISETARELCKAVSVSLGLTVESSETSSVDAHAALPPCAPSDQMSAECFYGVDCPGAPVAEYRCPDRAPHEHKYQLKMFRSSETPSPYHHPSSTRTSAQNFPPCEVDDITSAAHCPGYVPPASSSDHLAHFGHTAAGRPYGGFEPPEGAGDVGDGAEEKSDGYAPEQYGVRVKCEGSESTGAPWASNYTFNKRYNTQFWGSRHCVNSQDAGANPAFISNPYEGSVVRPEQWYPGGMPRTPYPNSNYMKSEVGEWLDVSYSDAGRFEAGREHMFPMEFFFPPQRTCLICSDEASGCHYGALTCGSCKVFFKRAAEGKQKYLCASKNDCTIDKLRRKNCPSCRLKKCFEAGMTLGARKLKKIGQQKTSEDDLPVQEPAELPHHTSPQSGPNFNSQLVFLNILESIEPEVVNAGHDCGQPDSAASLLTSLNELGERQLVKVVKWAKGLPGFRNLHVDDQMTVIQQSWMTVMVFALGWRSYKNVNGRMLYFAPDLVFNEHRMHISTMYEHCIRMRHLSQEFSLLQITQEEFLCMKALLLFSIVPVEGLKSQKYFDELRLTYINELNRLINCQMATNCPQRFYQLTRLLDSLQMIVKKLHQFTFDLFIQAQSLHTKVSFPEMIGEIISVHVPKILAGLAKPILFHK

medaka ARβ (mArβ) [3] = target: T1, medaka ARβ (mArβ); test: Medaka ARβ reporter gene assay, agonist assay; assay type: cell-based, Japanese medaka (Oryzias latipes)
medaka Esr1 (mEsr1) [4] = target: T2, medaka Esr1 (mEsr1) (Oryzias latipes, UniProt P50241); test: cell-based; parameters: species or system Japanese medaka (Oryzias latipes)
T2 sequence (P50241 1-620): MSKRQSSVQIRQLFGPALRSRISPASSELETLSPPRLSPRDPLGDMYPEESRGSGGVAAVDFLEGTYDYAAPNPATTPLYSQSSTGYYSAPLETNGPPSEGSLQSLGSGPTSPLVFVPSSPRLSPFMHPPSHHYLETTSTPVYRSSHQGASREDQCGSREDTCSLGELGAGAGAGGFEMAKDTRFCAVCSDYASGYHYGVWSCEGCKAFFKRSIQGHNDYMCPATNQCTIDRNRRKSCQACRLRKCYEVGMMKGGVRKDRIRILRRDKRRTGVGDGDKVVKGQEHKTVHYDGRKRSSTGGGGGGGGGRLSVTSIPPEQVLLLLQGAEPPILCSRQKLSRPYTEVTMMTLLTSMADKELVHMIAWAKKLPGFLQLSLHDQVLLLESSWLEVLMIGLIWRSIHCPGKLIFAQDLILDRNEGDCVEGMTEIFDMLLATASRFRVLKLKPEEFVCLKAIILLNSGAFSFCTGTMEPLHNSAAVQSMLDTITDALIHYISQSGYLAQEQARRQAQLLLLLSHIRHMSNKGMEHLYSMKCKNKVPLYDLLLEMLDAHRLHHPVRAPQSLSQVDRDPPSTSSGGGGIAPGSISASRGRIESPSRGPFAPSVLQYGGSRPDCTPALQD

medaka Esr1 (mEsr1) [5] = target: T2, medaka Esr1 (mEsr1); test: Medaka Esr1 reporter gene assay, antagonist assay; assay type: cell-based, Japanese medaka (Oryzias latipes)
[6] = measured concentration 0.349 mg/L
[7] = measured concentration 1.02 mg/L
[8] = 177 μg/L measured, sig. ↑ vs control
[9] = 353 μg/L measured, sig. ↑ vs control
[10] = 353 μg/L measured, sig. ↓ vs control
[11] = measured concentration 54.4 μg/L
[12] = measured concentration 104 μg/L
[13] = measured concentration 177 μg/L
[14] = measured concentration 353 μg/L

CCNc1nc(Cl)nc(NC(C)(C)C#N)n1 [CZ, Cyanazine]
Fertility rate ([1]; 0.349 mg/L measured): 80 ± 19%
Hepatic VTG, female ([1]; 0.349 mg/L measured): 2,550 ± 896 ng/mg‐liver
Hepatic VTG, male ([1]; 0.349 mg/L measured): 0.5 ± 0.0 ng/mg‐liver
Mortality ([1]; 0.349 mg/L measured): 4.2%
Mortality, number of dead fish ([1]; 0.349 mg/L measured): 1
Number of fertilized eggs (per female per day) ([1]; 0.349 mg/L measured): 12 ± 5.8
Number of total eggs (per female per day) ([1]; 0.349 mg/L measured): 14 ± 5.1
SSC female (joint plates with papillary processes) ([1]; 0.349 mg/L measured): 0 ± 0
SSC male (joint plates with papillary processes) ([1]; 0.349 mg/L measured): 96 ± 5.9
Fertility rate ([1]; 1.02 mg/L measured): 71 ± 20%
Hepatic VTG, female ([1]; 1.02 mg/L measured): 2,860 ± 679 ng/mg‐liver
Hepatic VTG, male ([1]; 1.02 mg/L measured): 0.5 ± 0.0 ng/mg‐liver
Mortality ([1]; 1.02 mg/L measured): 8.3%
Mortality, number of dead fish ([1]; 1.02 mg/L measured): 2
SSC female (joint plates with papillary processes) ([1]; 1.02 mg/L measured): 0 ± 0
SSC male (joint plates with papillary processes) ([1]; 1.02 mg/L measured): 94 ± 23
Change of hepatic VTG levels in females (in words) [1]: did not reduce
Fecundity, number of total eggs (in words) [1]: statistically significant decrease
LOECREPRO ([1]; LOEC on reproduction (fecundity and/or fertility)): 1,020 μg/L
minimal effective concentration [1]: > 1.02 µg/mL
Fertility rate (in words) [1]: no significant effect
LOECREPRO (reduction in fecundity or fertility) ([1]; concentrations without overt toxicity): 1,020 μg/L
LOECTOX [1]: ND (>1,020) μg/L
GSI Female [1, 6]: 8.3 ± 0.9%
GSI Male [1, 6]: 0.67 ± 0.11%
HSI Female [1, 6]: 3.4 ± 0.69%
HSI Male [1, 6]: 1.8 ± 0.18%
Length Female [1, 6]: 35.8 ± 1.0 mm
Length Male [1, 6]: 35.3 ± 1.1 mm
Weight Female [1, 6]: 515 ± 28 mg
Weight Male [1, 6]: 483 ± 50 mg
GSI Female [1, 7]: 7.6 ± 0.9%
GSI Male [1, 7]: 0.55 ± 0.08%
HSI Female [1, 7]: 3.5 ± 0.33%
HSI Male [1, 7]: 1.7 ± 0.14%
Length Female [1, 7]: 35.0 ± 1.0 mm
Length Male [1, 7]: 34.4 ± 0.8 mm
Weight Female [1, 7]: 470 ± 49 mg
Weight Male [1, 7]: 419 ± 40 mg
Antagonistic activity (medaka ARβ (mArβ) [2]; MAC = 1.0 × 10^−4 M): NE (MAC = 1.0 × 10^−4 M)^(D)
Agonistic activity (medaka ARβ (mArβ) [3]; MAC = 1.0 × 10^−4 M): NE (MAC = 1.0 × 10^−4 M)
Agonistic activity (medaka Esr1 (mEsr1) [4]; MAC = 1.0 × 10^−4 M): NE (MAC = 1.0 × 10^−4 M)
IC50 (medaka Esr1 (mEsr1) [5]): 0.61 µM
Antagonistic activity on mEsr1 (in words) (medaka Esr1 (mEsr1) [5]; antagonist assays): inhibited the transcriptional activity on mEsr1 by E2
In vitro positive: aEsr (medaka Esr1 (mEsr1) [5]; mode of action in which IC50 or IC30 was obtained in RGA): aEsr

Oc1cc(Cl)ccc1Oc1ccc(Cl)cc1Cl [TCS, Triclosan]
Fertility rate ([1]; 54.4 μg/L measured): 96 ± 3.3%
Hepatic VTG, female ([1]; 54.4 μg/L measured): 616 ± 220 ng/mg‐liver
Hepatic VTG, male ([1]; 54.4 μg/L measured): 3.3 ± 4.7 ng/mg‐liver
Mortality ([1]; 54.4 μg/L measured): 4.2%
Mortality, number of dead fish ([1]; 54.4 μg/L measured): 1
Number of fertilized eggs (per female per day) ([1]; 54.4 μg/L measured): 25 ± 4.0
Number of total eggs (per female per day) ([1]; 54.4 μg/L measured): 26 ± 3.8
SSC female (joint plates with papillary processes) ([1]; 54.4 μg/L measured): 0 ± 0
Fertility rate ([1]; 104 μg/L measured): 98 ± 1.4%
Hepatic VTG, female ([1]; 104 μg/L measured): 698 ± 32 ng/mg‐liver
Hepatic VTG, male ([1]; 104 μg/L measured): 4.5 ± 2.7 ng/mg‐liver
Mortality ([1]; 104 μg/L measured): 13%
Mortality, number of dead fish ([1]; 104 μg/L measured): 3
Number of fertilized eggs (per female per day) ([1]; 104 μg/L measured): 24 ± 1.0
Number of total eggs (per female per day) ([1]; 104 μg/L measured): 24 ± 1.1
SSC female (joint plates with papillary processes) ([1]; 104 μg/L measured): 0 ± 0
Fertility rate ([1]; 177 μg/L measured): 97 ± 1.5%
Number of fertilized eggs (per female per day) ([1]; 177 μg/L measured): 18 ± 7.0
Number of total eggs (per female per day) ([1]; 177 μg/L measured): 19 ± 7.2
SSC female (joint plates with papillary processes) ([1]; 177 μg/L measured): 0 ± 0
Hepatic VTG, female [1, 8]: 955 ± 73 ng/mg‐liver
Mortality [1, 8]: 29%
Mortality, number of dead fish [1, 8]: 7
Hepatic VTG, male ([1]; 177 μg/L measured, sig. ↓ vs control): 0.9 ± 0.1 ng/mg‐liver
Fertility rate ([1]; 353 μg/L measured): 98 ± 0.8%
SSC female (joint plates with papillary processes) ([1]; 353 μg/L measured): 0 ± 0
Hepatic VTG, female [1, 9]: 1,111 ± 265 ng/mg‐liver
Mortality [1, 9]: 50%
Mortality, number of dead fish [1, 9]: 12
Hepatic VTG, male [1, 10]: 1.0 ± 0.3 ng/mg‐liver
Number of fertilized eggs (per female per day) [1, 10]: 10 ± 1.9
Number of total eggs (per female per day) [1, 10]: 10 ± 2.0
Change of hepatic VTG levels in females (in words) [1]: significant increase
Fecundity, number of total eggs (in words) [1]: statistically significant decrease
minimal effective concentration [1]: > 0.353 µg/mL
Fertility rate (in words) [1]: no significant effect
LOECTOX [1]: 177 µg/L
GSI Female [1, 11]: 7.3 ± 0.4%
GSI Male [1, 11]: 1.00 ± 0.13%
HSI Female [1, 11]: 3.8 ± 0.40%
HSI Male [1, 11]: 1.6 ± 0.23%
Length Female [1, 11]: 33.5 ± 0.7 mm
Length Male [1, 11]: 33.6 ± 0.7 mm
Weight Female [1, 11]: 449 ± 11 mg
Weight Male [1, 11]: 379 ± 28 mg
GSI Female [1, 12]: 7.5 ± 0.6%
GSI Male [1, 12]: 1.00 ± 0.23%
HSI Female [1, 12]: 3.7 ± 0.79%
HSI Male [1, 12]: 1.5 ± 0.09%
Length Female [1, 12]: 32.8 ± 1.1 mm
Length Male [1, 12]: 34.8 ± 0.7 mm
Weight Female [1, 12]: 409 ± 20 mg
Weight Male [1, 12]: 417 ± 13 mg
GSI Female [1, 13]: 7.9 ± 1.4%
GSI Male [1, 13]: 0.90 ± 0.17%
HSI Female [1, 13]: 3.8 ± 0.30%
HSI Male [1, 13]: 1.4 ± 0.41%
Length Female [1, 13]: 32.4 ± 1.3 mm
Length Male [1, 13]: 33.3 ± 0.9 mm
Weight Female [1, 13]: 425 ± 45 mg
Weight Male [1, 13]: 380 ± 66 mg
GSI Female [1, 14]: 8.7 ± 1.1%
GSI Male [1, 14]: 1.20 ± 0.73%
HSI Female [1, 14]: 4.5 ± 0.23%
HSI Male [1, 14]: 2.4 ± 1.08%
Length Female [1, 14]: 33.2 ± 0.9 mm
Length Male [1, 14]: 33.3 ± 1.5 mm
Weight Female [1, 14]: 437 ± 30 mg
Weight Male [1, 14]: 361 ± 57 mg
Antagonistic activity (medaka ARβ (mArβ) [2]; MAC = 1.0 × 10^−5 M): NE (MAC = 1.0 × 10^−5 M)^(D)
Agonistic activity (medaka ARβ (mArβ) [3]; MAC = 1.0 × 10^−5 M): NE (MAC = 1.0 × 10^−5 M)
Agonistic activity PC10 (medaka Esr1 (mEsr1) [4]): PC10 = 2.0 × 10^−6 M
In vitro positive: Esr (medaka Esr1 (mEsr1) [4]; mode of action in which EC50 or PC10 was obtained in RGA): Esr
Antagonistic activity (medaka Esr1 (mEsr1) [5]; E2 spiked at 1.0 nM (B), MAC = 1.0 × 10^−5 M): NE (MAC = 1.0 × 10^−5 M)^(B)
